According to publication PMC9582194, “The effect of helix-inducing constraints and downsizing upon a transcription block survival-derived functional cJun antagonist” (Cell Reports. Physical Science, 2022):
Positions of bridges follow the written chain, without caps; N, C: chain ends. Residues, ends and D or L forms follow the SMILES beside them. No end group written: not given here.

What was measured:
cJun = biological target: T1, cJun (Homo sapiens, UniProt P05412); test: CD thermal denaturation of peptide-cJun heterodimers (Tm); type: binding; conditions: for Tm of peptide-cJun heterodimer: CD ellipticity at 222 nm, 1-90 °C, peptide (5 μM)/cJun (5 μM), 20 mM potassium phosphate, 150 mM potassium fluoride, 2 mM TCEP pH 7.4, two-state fit, duplicate experiments, ± one SD; for ΔTm of cJun heterodimer due to lactamization: cyclized versus its linear (non-lactamized) counterpart
T1 construct: The same 60 amino acid cJun construct, encompassing the entire bZIP domain, was used for all experiments
Protocol: (§1) The precise nature of the interaction between the cJun DBD and the rationally designed acidic domain of HW1 is unknown. HW1 was, therefore, iteratively truncated from the N terminus (HW2–6) to investigate the effect on cJun binding and cJun/TRE DNA antagonism (Table 1). Peptide fraction helicity (fH) was determined by quantifying the circular dichroism (CD) signal at 222 nm of peptide-only samples (Figure S1). Thermal denaturation experiments were then used to determine the melting temperature (Tm) of peptide-cJun heterodimers, which serves as an approximate measure of target engagement. CD was also used to investigate the functional activity of peptides in antagonizing the cJun/TRE DNA interaction. […] This provides a clear and direct measurement of the proportion of DNA bound to cJun. As antagonist peptide concentration was increased, the peak shifted to overlay with that of free TRE-DNA (Figure S4). For each peptide, the data were fit to a Hill equation to determine half-maximal inhibitory concentration (IC50) values, specific to these assay conditions, providing a clear comparative measure of antagonism. The same 60 amino acid cJun construct, encompassing the entire bZIP domain, was used for all experiments regardless of antagonist peptide length.
Figure 2 Iterative N-terminal truncation of HingeW reduces cJun binding and antagonism (A) Thermal denaturation profiles for iteratively truncated peptide (5 μM)/cJun (5 μM) heterodimer samples. (B) CD antagonism data produced by monitoring the shift in a DNA specific peak to provide a direct readout of cJun-DNA binding. Peptides are added at the indicated concentrations to a pre-incubated mixture of cJun (20 μM) and TRE DNA (5 μM). Data points were averaged from triplicate experiments, and error bars indicate one SD. The data were fitted to a Hill equation to determine IC50 values. Some higher peptide concentration data points for HW6 and HW9 are not shown in this plot for clarity.

[1] = Peptide fraction helicity by CD at 222 nm, peptide-only samples; type: physicochemical; conditions: for fH, peptide fraction helicity: CD signal at 222 nm of peptide-only samples, pH 7.4 phosphate/KF/TCEP buffer, duplicate experiments
Protocol: as §1

[2] = biological target: T2, cJun (60 amino acid construct encompassing the entire bZIP domain) (UniProt P05412 252-315); test: CD thermal denaturation; peptide (5 μM) with cJun (5 μM); ellipticity at 222 nm, 1°C to 90°C; 20 mM potassium phosphate, 150 mM potassium fluoride, 2 mM TCEP, pH 7.4; two-state fit gives the Tm of the peptide-cJun heterodimer; duplicate experiments; conditions: both partners purified
[3] = biological target: T2, cJun (60 amino acid construct …); test: cell-based or functional assay

T2 sequence (P05412 252-315): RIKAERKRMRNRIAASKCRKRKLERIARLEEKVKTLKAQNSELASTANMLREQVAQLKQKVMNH
T1 sequence (P05412 252-315 limits assumed): as the sequence (P05412 252-315) above

In the case of “Ac-EAEELVVEEDVLEEEIEQLEERNYALRKEIKDLQDQ-NH2 [HW28]”, the “Tm of peptide-cJun heterodimer” value (cJun) is reported as 55.6 ± 1.2 °C and the “fH, peptide fraction helicity” value [1] is reported as 35.0%.

In the case of “Ac-EAEELVVEEDVLEEEIEQLEEKNKALKDEIEDLQKQY-NH2 [HW26]”, the “Tm of peptide-cJun heterodimer” value (cJun) is reported as 56.2 ± 1.3 °C and the “fH, peptide fraction helicity” value [1] is reported as 36.0%.

For “Ac-EAEELVVEEDVLEEEIKQLEDRNYALRKEIEDLQKQ-NH2 [HW24]”, the “Tm of peptide-cJun heterodimer” value (cJun) was 55.5 ± 1.7 °C and the “fH, peptide fraction helicity” value [1] was 37.0%.

For `CC[C@H](C)[C@H](NC(=O)[C@H](CCC(=O)O)NC(=O)[C@H](CCCCN)NC(=O)[C@H](CCCNC(=N)N)NC(=O)[C@H](CC(C)C)NC(=O)[C@H](C)NC(=O)[C@H](Cc1ccc(O)cc1)NC(=O)[C@H](CC(N)=O)NC(=O)[C@H](CCCNC(=N)N)NC(=O)[C@H](CCC(=O)O)NC(=O)[C@H](CCC(=O)O)NC(=O)[C@H](CC(C)C)NC(=O)[C@H](CCC(N)=O)NC(=O)[C@H](CCC(=O)O)NC(=O)[C@@H](NC(=O)[C@H](CCC(=O)O)NC(=O)[C@H](CCC(=O)O)NC(=O)[C@H](CCC(=O)O)NC(=O)[C@H](CC(C)C)NC(=O)[C@@H](NC(=O)[C@H](CC(=O)O)NC(=O)[C@H](CCC(=O)O)NC(=O)[C@H](CCC(=O)O)NC(=O)[C@@H]1CC(=O)NCCCC[C@H](NC(=O)[C@H](C)NC(=O)[C@H](CCC(=O)O)NC(C)=O)C(=O)N[C@@H](CCC(=O)O)C(=O)N[C@@H](CC(C)C)C(=O)N[C@@H](C(C)C)C(=O)N1)C(C)C)[C@@H](C)CC)C(=O)N[C@@H](CCC(=O)O)C(=O)N[C@@H](CC(=O)O)C(=O)N[C@@H](CC(C)C)C(=O)N[C@@H](CCC(N)=O)C(=O)N[C@@H](CCCCN)C(=O)N[C@@H](CCC(N)=O)C(N)=O` [HW21] (Ac-EAKELVDEEDVLEEEIEQLEERNYALRKEIEDLQKQ-NH2; lactam 3-7), the “ΔTm of cJun heterodimer due to lactamization” value (cJun) was ~2 °C.

In the case of “Ac-LVVEEDVLEEEIEQLEERNYALRKEIEDLQKQLEDL-NH2 [HW12]”, the “Tm of peptide-cJun heterodimer” value (cJun) is reported as 62.1 ± 1.4 °C and the “fH, peptide fraction helicity” value [1] is reported as 43.0%.

For `CC[C@H](C)[C@H](NC(=O)[C@H](CCC(=O)O)NC(=O)[C@H](CCCCN)NC(=O)[C@H](CCCNC(=N)N)NC(=O)[C@H](CC(C)C)NC(=O)[C@H](C)NC(=O)[C@H](Cc1ccc(O)cc1)NC(=O)[C@H](CC(N)=O)NC(=O)[C@H](CCCNC(=N)N)NC(=O)[C@H](CCC(=O)O)NC(=O)[C@H](CCC(=O)O)NC(=O)[C@H](CC(C)C)NC(=O)[C@H](CCC(N)=O)NC(=O)[C@H](CCC(=O)O)NC(=O)[C@@H](NC(=O)[C@H](CCC(=O)O)NC(=O)[C@H](CCC(=O)O)NC(=O)[C@H](CCC(=O)O)NC(=O)[C@H](CC(C)C)NC(=O)[C@@H](NC(=O)[C@H](CC(=O)O)NC(=O)[C@H](CCC(=O)O)NC(=O)[C@H](CCC(=O)O)NC(=O)[C@@H](NC(=O)[C@@H](NC(=O)[C@H](CC(C)C)NC(=O)[C@@H]1CC(=O)NCCCC[C@H](NC(C)=O)C(=O)N[C@@H](CCC(=O)O)C(=O)N[C@@H](C)C(=O)N[C@@H](CCC(=O)O)C(=O)N1)C(C)C)C(C)C)C(C)C)[C@@H](C)CC)C(=O)N[C@@H](CCCCN)C(=O)N[C@@H](CC(=O)O)C(=O)N[C@@H](CC(C)C)C(=O)N[C@@H](CCC(N)=O)C(=O)N[C@@H](CC(=O)O)C(=O)N[C@@H](CCC(N)=O)C(N)=O` [HW19] (Ac-KEAEDLVVEEDVLEEEIEQLEERNYALRKEIKDLQDQ-NH2; lactam 1-5 (inferred)), the “Tm of peptide-cJun heterodimer” value (cJun) was 58.5 ± 1.0 °C, the “fH, peptide fraction helicity” value [1] was 40.1% and the “change in fH due to lactamization” value ([1]; cyclized versus its linear counterpart) was ~1%.

In the case of “Ac-LVVEEDVLEEEIEQLEEKNKALKDEIEDLQKQLEKLY-NH2 [HW10]”, the “Tm of peptide-cJun heterodimer” value (cJun) is reported as 64.3 ± 1.3 °C and the “fH, peptide fraction helicity” value [1] is reported as 45.6%.

With “Ac-KEAEDLVVEEDVLEEEIEQLEERNYALRKEIKDLQDQ-NH2 [HW18]” the “Tm of peptide-cJun heterodimer” value (cJun) was 56.5 ± 1.6 °C and the “fH, peptide fraction helicity” value [1] was 38.7%.

With “EDVLEEEIEQLEERNYALRKEIEDLQKQLEKLGAP-NH2 (C-terminus assumed) [HW6]” the “Tm of peptide-cJun heterodimer” value (cJun) was 55.1 ± 1.1 °C and the “fH, peptide fraction helicity” value [1] was 38.0%.

For `CC[C@H](C)[C@H](NC(=O)[C@H](CCC(=O)O)NC(=O)[C@H](CCCCN)NC(=O)[C@H](CCCNC(=N)N)NC(=O)[C@H](CC(C)C)NC(=O)[C@H](C)NC(=O)[C@H](Cc1ccc(O)cc1)NC(=O)[C@H](CC(N)=O)NC(=O)[C@H](CCCNC(=N)N)NC(=O)[C@H](CCC(=O)O)NC(=O)[C@H](CCC(=O)O)NC(=O)[C@H](CC(C)C)NC(=O)[C@H](CCC(N)=O)NC(=O)[C@H](CCC(=O)O)NC(=O)[C@@H](NC(=O)[C@H](CCC(=O)O)NC(=O)[C@@H]1CC(=O)NCCCC[C@H](NC(=O)[C@H](CCC(=O)O)NC(=O)[C@H](CCC(=O)O)NC(=O)[C@@H](NC(=O)[C@@H](NC(=O)[C@H](CC(C)C)NC(=O)[C@H](CCC(=O)O)NC(=O)[C@H](CCC(=O)O)NC(=O)[C@H](C)NC(=O)[C@H](CCC(=O)O)NC(C)=O)C(C)C)C(C)C)C(=O)N[C@@H](C(C)C)C(=O)N[C@@H](CC(C)C)C(=O)N[C@@H](CCC(=O)O)C(=O)N1)[C@@H](C)CC)C(=O)N[C@@H](CCC(=O)O)C(=O)N[C@@H](CC(=O)O)C(=O)N[C@@H](CC(C)C)C(=O)N[C@@H](CCC(N)=O)C(=O)N[C@@H](CCCCN)C(=O)N[C@@H](CCC(N)=O)C(N)=O` [HW23] (Ac-EAEELVVEEKVLEDEIEQLEERNYALRKEIEDLQKQ-NH2; lactam 10-14), the “ΔTm of cJun heterodimer due to lactamization” value (cJun) was ~9 °C.

For “Ac-EAKELVDEEDVLEEEIEQLEERNYALRKEIEDLQKQ-NH2 [HW20]”, the “Tm of peptide-cJun heterodimer” value (cJun) was 57.5 ± 1.1 °C and the “fH, peptide fraction helicity” value [1] was 36.9%.

For “Ac-EAEELVVEEDVLEEEIEQLEERNYALRKEIEDLQ-NH2 [HW16]”, the “Tm of peptide-cJun heterodimer” value (cJun) was 53.8 ± 5.3 °C and the “fH, peptide fraction helicity” value [1] was 31.2%.

In the case of “Ac-EAEELVVEEDVLEEEIEQLEERNYALRKEIEDL-NH2 [HW9]”, the “Tm of peptide-cJun heterodimer” value (cJun) is reported as 44.8 ± 1.2 °C and the “fH, peptide fraction helicity” value [1] is reported as 32.8%.

B1: HW27 (peptide)
peptide: Ac-EAEELVVEEDVLEEEIEQLEEKNKALKDEIEDLQKQY-NH2
modifications: lactam 24-28
SMILES: CC[C@H](C)[C@H](NC(=O)[C@H](CCC(=O)O)NC(=O)[C@@H]1CC(=O)NCCCC[C@H](NC(=O)[C@H](CC(N)=O)NC(=O)[C@H](CCCCN)NC(=O)[C@H](CCC(=O)O)NC(=O)[C@H](CCC(=O)O)NC(=O)[C@H](CC(C)C)NC(=O)[C@H](CCC(N)=O)NC(=O)[C@H](CCC(=O)O)NC(=O)[C@@H](NC(=O)[C@H](CCC(=O)O)NC(=O)[C@H](CCC(=O)O)NC(=O)[C@H](CCC(=O)O)NC(=O)[C@H](CC(C)C)NC(=O)[C@@H](NC(=O)[C@H](CC(=O)O)NC(=O)[C@H](CCC(=O)O)NC(=O)[C@H](CCC(=O)O)NC(=O)[C@@H](NC(=O)[C@@H](NC(=O)[C@H](CC(C)C)NC(=O)[C@H](CCC(=O)O)NC(=O)[C@H](CCC(=O)O)NC(=O)[C@H](C)NC(=O)[C@H](CCC(=O)O)NC(C)=O)C(C)C)C(C)C)C(C)C)[C@@H](C)CC)C(=O)N[C@@H](C)C(=O)N[C@@H](CC(C)C)C(=O)N[C@@H](CCCCN)C(=O)N1)C(=O)N[C@@H](CCC(=O)O)C(=O)N[C@@H](CC(=O)O)C(=O)N[C@@H](CC(C)C)C(=O)N[C@@H](CCC(N)=O)C(=O)N[C@@H](CCCCN)C(=O)N[C@@H](CCC(N)=O)C(=O)N[C@@H](Cc1ccc(O)cc1)C(N)=O
notes: cyclized form of the pair HW26/HW27; NΔ20 CΔ7; source: synthetic peptide (Fmoc SPPS, on-resin lactamization, RP-HPLC purified)
In the case of B1, the “Tm of the peptide-cJun heterodimer” value [2] is reported as 58.9 °C and the “IC50 CD: peptide added to pre-incubated cJun (20 μM) and TRE DNA (5 μM); blocks cJun/TRE DNA binding” value (“IC50 CD … blocks cJun/TRE DNA binding” below) [3] is reported as 94.1 µM.

B2: HW9 (peptide)
peptide: Ac-EAEELVVEEDVLEEEIEQLEERNYALRKEIEDL-NH2
notes: truncation NΔ20 CΔ10 of HW1; source: synthetic peptide (Fmoc SPPS, RP-HPLC purified)
In the case of B2, the “Tm of the peptide-cJun heterodimer” value [2] is reported as 44.8 °C and the “IC50 CD … blocks cJun/TRE DNA binding” value [3] is reported as 1210 µM.

B3: HW3 (peptide)
peptide: Ac-LEKEAEELVVEEDVLEEEIEQLEERNYALRKEIEDLQKQLEKL-NH2
notes: truncation NΔ17 CΔ3 of HW1; source: synthetic peptide (Fmoc SPPS, RP-HPLC purified)
With B3 the “Tm of the peptide-cJun heterodimer” value [2] was 67.9 °C and the “IC50 CD … blocks cJun/TRE DNA binding” value [3] was 33.7 µM.

B4: HW6 (peptide)
peptide: EDVLEEEIEQLEERNYALRKEIEDLQKQLEKLGAP-NH2
notes: truncation NΔ28 of HW1: the leucine zipper (LZ) only; also called LZ domain of HW1; source: synthetic peptide (Fmoc SPPS, RP-HPLC purified)
For B4, the “Tm of the peptide-cJun heterodimer” value [2] was 55.1 °C and the “IC50 CD … blocks cJun/TRE DNA binding” value [3] was 130 µM.
